Source: PMC4661694, “Aminopeptidase T of M29 Family Acts as A Novel Intracellular Virulence Factor for Listeria monocytogenes Infection” (Scientific Reports, 2015)

Molecular target: T1, Lmo1603 (Listeria monocytogenes, UniProt Q8Y6T0)
T1 construct: tag removal not mentioned
Assay: p-nitroaniline release, absorbance […] nm
Type: biochemical
Details: 50 mM Tris-HCl pH 8.5, 2 mM substrate, 5 uM enzyme, 12 h

T1 sequence (Q8Y6T0 entry or part of it): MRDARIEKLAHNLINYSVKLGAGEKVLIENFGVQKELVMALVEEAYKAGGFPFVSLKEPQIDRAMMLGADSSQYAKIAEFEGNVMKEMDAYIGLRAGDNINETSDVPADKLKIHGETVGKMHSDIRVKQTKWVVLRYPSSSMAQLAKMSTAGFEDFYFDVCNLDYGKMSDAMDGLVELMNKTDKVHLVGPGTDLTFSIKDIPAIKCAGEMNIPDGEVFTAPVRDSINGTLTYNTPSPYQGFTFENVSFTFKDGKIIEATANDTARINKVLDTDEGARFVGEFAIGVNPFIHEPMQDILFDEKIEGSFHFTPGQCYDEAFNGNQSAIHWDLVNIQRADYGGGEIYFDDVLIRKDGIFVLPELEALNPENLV

| Compound | p-nitroaniline release, absorbance 405 nm (cobalt-activated enzyme) | p-nitroaniline release, absorbance 405 nm |
| --- | --- | --- |
| N=C(N)NCCC[C@H](N)C(=O)Nc1ccc([N+](=O)[O-])cc1 [Arg-pNA] | Lmo1603 showed the highest activity towards Arg-pNA, followed by Leu-pNA and Ala-pNA |  |
| CC(C)C[C@H](N)C(=O)Nc1ccc([N+](=O)[O-])cc1 [Leu-pNA] |  | Lmo1603 showed the highest activity towards Arg-pNA, followed by Leu-pNA and Ala-pNA |
